The structures appear in SMILES notation. Where a name gives a salt, the structure may show the parent alone.

Format in all cases: cell-based
One experiment relates to MRSA strain ATCC 700699. The experiment in a line: Minimum Inhibitory Concentration (MIC) assay, Methicillin Resistant S. Aureus. To be noted: Staphylococcus aureus; broth microdilution; read-out: MIC against Methicillin Resistant S. Aureus. From the text: It has been unexpectedly discovered that substitution of compounds of Formula I and Formula II with a methoxy substituent at the R8 position increases the anti-microbial activity of the compound against Methicillin resistant Staphylococcus Aureus bacteria while at the same time decreasing the cellular toxicity of the compound. The simultaneous increase in compound activity and decrease in compound toxicity provides a greater therapeutic range for compounds of Formula I and Formula II in which R8 is methoxy; i.e. the range of doses of such compounds that will produce beneficial effects without harmful side effects is increased. […] Therapeutic range is determined using a standard assay of cytotoxicity such as the Alamar blue assay provided in Example 10.
(§1) The antimicrobial activity of the compounds of the invention may be evaluated by a number of methods, including the following visual minimum inhibitory concentration (MIC) assay. This assay determines the minimum concentration of compound required to inhibit growth of a bacterial strain.
(§2) Minimum Inhibitory Concentration (MIC) Assay
(§3) Whole-cell antibacterial activity is determined by broth microdilution using conditions recommended by the NCCLS (see National Committee for Clinical Laboratory Standards. 2001. Performance standards for antimicrobial susceptibility testing: 11th informational supplement. Vol. 21, no. 1, M100-S11. National Committee for Clinical Laboratory Standards, Wayne, Pa.). Test compounds are dissolved in DMSO and diluted 1:50 in Mueller-Hinton II broth (Becton-Dickinson) to produce a 256 μg/ml stock solution. In a 96-well microtiter plate, the compound solution is serially two-fold diluted in Mueller-Hinton II broth. After the compounds are diluted, a 50 μl aliquot of the test organism (˜1×10^6 cfu/mL) is added to each well of the microtiter plate. The final test concentrations ranges from 0.125-128 μg/mL. Inoculated plates are incubated in ambient air at 37° C. for 18 to 24 hours. The organisms selected for testing included laboratory strains S. aureus ATCC 29213 and E. coli ATCC 25922 (strains purchased from American Type Culture Collection, Manassas, Va.), S. aureus FQR700699, and Paeruginosa 27853. The minimum inhibitory concentration (MIC) is determined as the lowest concentration of compound that inhibited visible growth of the test organism.
A general note: In broth dilution the organism is exposed to a series of concentrations in liquid medium.

The subject of the next experiment is S. aureus ATCC 29213. The experiment in a line: Minimum Inhibitory Concentration (MIC) assay, S. aureus. As to conditions: Staphylococcus aureus, ATCC29213; broth microdilution; read-out: MIC against S. Aureus. The protocol: as §1, §2, §3
In the next experiment the test system is E. coli ATCC 25922. The experiment in a line: Minimum Inhibitory Concentration (MIC) assay, E. coli. To be noted: Escherichia coli, ATCC25922; broth microdilution; read-out: MIC against E. coli. The protocol:
as §1, §2, §3

As to `COc1c(N2CC[C@@H](C(C)N)C2)ccc2c(=O)c3c(=O)[nH]sc3n(C3CC3)c12` (stereo partly drawn) [Compound 102, (R)-7-(3-(1-aminoethyl)-pyrrolidin-1-yl)-9-cyclopropyl-8-methoxyiso-thiazolo[5,4-b]quinoline-3,4(2H,9H)-dione], the MIC in the experiment on MRSA strain ATCC 700699, in the experiment with S. aureus ATCC 29213 and with E. coli ATCC 25922 was not above 1 µg/mL each time.
With `COc1c(N2CC[C@@H](C(C)N)C2)c(F)cc2c(=O)c3c(=O)[nH]sc3n(C3CC3)c12` (stereo partly drawn) [Compound 73, (R)-7-(3-(1-aminoethyl)pyrrolidin-1-yl)-9-cyclopropyl-6-fluoro-8-methoxyiso-thiazolo[5,4-b]quinoline-3,4(2H,9H)-dione], the MIC in the experiment on MRSA strain ATCC 700699, with S. aureus ATCC 29213 and with E. coli ATCC 25922 was not above 1 µg/mL in each case.
As to `CNC(C)[C@@H]1CCN(c2c(F)cc3c(=O)c4c(=O)[nH]sc4n(C4CC4)c3c2OC)C1` (stereo partly drawn) [Compound 74, (R)-9-cyclopropyl-6-fluoro-8-methoxy-7-(3-(1-(methyl-amino)ethyl)-pyrrolidin-1-yl)isothia-zolo[5,4-b]quinoline-3,4(2H,9H)-dione], the MIC with MRSA strain ATCC 700699, in the experiment with S. aureus ATCC 29213 and with E. coli ATCC 25922 was not above 1 µg/mL throughout.
As to `COc1c(N2CC[C@@H](C3(N)CC3)C2)c(F)cc2c(=O)c3c(=O)[nH]sc3n(C3CC3)c12` [Compound 55, (R)-7-(3-(1-amino-cyclopropyl)pyrrolidin-1-yl)-9-cyclopropyl-6-fluoro-8-methoxyiso-thiazolo[5,4-b]quinoline-3,4(2H,9H)-dione, hydrochloride], the MIC in the experiment on MRSA strain ATCC 700699, in the experiment with S. aureus ATCC 29213 and in the experiment on E. coli ATCC 25922 was not above 1 µg/mL throughout.
`COc1c(N2CC[C@@H](C(C)(C)N)C2)ccc2c(=O)c3c(=O)[nH]sc3n(C3CC3)c12` [Compound 54, (R)-7-(3-(2-aminopropan-2-yl)pyrrolidin-1-yl)-9-cyclopropyl-8-methoxyiso-thiazolo[5,4-b]quinoline-3,4(2H,9H)-dione, hydrochloride]: the MIC with MRSA strain ATCC 700699, in the experiment on S. aureus ATCC 29213 and in the experiment with E. coli ATCC 25922 was not above 1 µg/mL throughout.
For the molecule `COc1c(N2CC[C@@H](C(C)NC3CC3)C2)c(F)cc2c(=O)c3c(=O)[nH]sc3n(C3CC3)c12` (stereo partly drawn) [Compound 93, (R)-9-cyclo-propyl-7-(3-(1-(cyclo-propylamino)ethyl)-pyrrolidin-1-yl)-6-fluoro-8-methoxyiso-thiazolo[5,4-b]quinoline-3,4(2H,9H)-dione], the minimal inhibitory concentration (MIC) in the experiment on MRSA strain ATCC 700699, in the experiment with S. aureus ATCC 29213 and in the experiment with E. coli ATCC 25922 was not above 1 µg/mL in each case.
Take `COc1c(N2CC(C)C(CN)C2)c(F)cc2c(=O)c3c(=O)[nH]sc3n(C3CC3)c12` (stereo not drawn) [Compound 95, 7-(3-(amino-methyl)-4-methyl-pyrrolidin-1-yl)-9-cyclopropyl-6-fluoro-8-methoxyiso-thiazolo[5,4-b]quinoline-3,4(2H,9H)-dione]: the MIC in the experiment with MRSA strain ATCC 700699, with S. aureus ATCC 29213 and in the experiment on E. coli ATCC 25922 was not above 1 µg/mL in each case.
For `COc1c(N2CC[C@@H]([C@H](C)N)C2)ccc2c(=O)c3c(=O)[nH]sc3n(C3CC3)c12` [Compound 111, 7-((R)-3-((S)-1-aminoethyl)-pyrrolidin-1-yl)-9-cyclo-propyl-8-methoxyiso-thiazolo[5,4-b]quinoline-3,4(2H,9H)-dione], the MIC in the experiment on MRSA strain ATCC 700699 and with S. aureus ATCC 29213 was not above 1 µg/mL in each case.
For `COc1c(N2CC[C@H](C(C)NC3CC3)C2)c(F)cc2c(=O)c3c(=O)[nH]sc3n(C3CC3)c12` (stereo partly drawn) [Compound 94, (S)-9-cyclo-propyl-7-(3-(1-(cyclo-propylamino)ethyl)-pyrrolidin-1-yl)-6-fluoro-8-methoxyiso-thiazolo[5,4-b]quinoline-3,4(2H,9H)-dione], the MIC with MRSA strain ATCC 700699, in the experiment on S. aureus ATCC 29213 and in the experiment with E. coli ATCC 25922 was not above 1 µg/mL each time.
In the case of `CNC(C)[C@@H]1CCN(c2ccc3c(=O)c4c(=O)[nH]sc4n(C4CC4)c3c2OC)C1` (stereo partly drawn) [Compound 103, (R)-9-cyclo-propyl-8-methoxy-7-(3-(1-(methylamino)-ethyl)pyrrolidin-1-yl)isothia-zolo[5,4-b]quinoline-3,4(2H,9H)-dione], the MIC with MRSA strain ATCC 700699, in the experiment with S. aureus ATCC 29213 and in the experiment with E. coli ATCC 25922 was not above 1 µg/mL in each case.
Regarding `CN[C@@H](C)[C@@H]1CCN(c2c(F)cc3c(=O)c4c(=O)[nH]sc4n(C4CC4)c3c2OC)C1` [Compound 108, 9-cyclopropyl-6-fluoro-8-methoxy-7-((R)-3-((S)-1-(methylamino)-ethyl)pyrrolidin-1-yl)isothia-zolo[5,4-b]quinoline-3,4(2H,9H)-dione], the MIC in the experiment on MRSA strain ATCC 700699 and with S. aureus ATCC 29213 was not above 1 µg/mL each time.
As to `COc1c(N2CC[C@@H](C3(N)CC3)C2)ccc2c(=O)c3c(=O)[nH]sc3n(C3CC3)c12` [Compound 56, (R)-7-(3-(1-aminocyclo-propyl)pyrrolidin-1-yl)-9-cyclopropyl-8-methoxy-isothia-zolo[5,4-b]quinoline-3,4(2H,9H)-dione, hydrochloride], the MIC in the experiment with MRSA strain ATCC 700699, with S. aureus ATCC 29213 and in the experiment on E. coli ATCC 25922 was not above 1 µg/mL in each case.
For `CNC[C@@H]1CCN(c2c(F)cc3c(=O)c4c(=O)[nH]sc4n(C4CC4)c3c2OC)C1` [Compound 87, (S)-9-cyclo-propyl-6-fluoro-8-methoxy-7-(3-((methylamino)-methyl)pyrrolidin-1-yl)isothia-zolo[5,4-b]quinoline-3,4(2H,9H)-dione], the MIC in the experiment with MRSA strain ATCC 700699, in the experiment on S. aureus ATCC 29213 and with E. coli ATCC 25922 was not above 1 µg/mL each time.
As to `COc1c(N2CC(C)C(C#N)C2)c(F)cc2c(=O)c3c(=O)[nH]sc3n(C3CC3)c12` (stereo not drawn) [Compound 100, 1-(9-cyclo-propyl-6-fluoro-8-methoxy-3,4-dioxo-2,3,4,9-tetrahydroisothia-zolo[5,4-b]quinolin-7-yl)-4-methyl-pyrrolidine-3-carbonitrile], the MIC in the experiment on MRSA strain ATCC 700699, in the experiment on S. aureus ATCC 29213 and in the experiment with E. coli ATCC 25922 was not above 1 µg/mL throughout.
For the molecule `COc1c(N2CC[C@@H](CNC3CC3)C2)c(F)cc2c(=O)c3c(=O)[nH]sc3n(C3CC3)c12` [Compound 88, (S)-9-cyclo-propyl-7-(3-((cyclopropyl-amino)-methyl)-pyrrolidin-1-yl)-6-fluoro-8-methoxyiso-thiazolo[5,4-b]quinoline-3,4(2H,9H)-dione], the MIC in the experiment on MRSA strain ATCC 700699, with S. aureus ATCC 29213 and with E. coli ATCC 25922 was not above 1 µg/mL each time.
Take `[2H]C1([2H])CC(C(C)(C)N)C([2H])([2H])N1c1c(F)cc2c(=O)c3c(=O)[nH]sc3n(C3CC3)c2c1OC` (stereo not drawn) [Compound 71, 7-(3-(2-amino-propan-2-yl)-2,2,5,5-tetradeuterated-pyrrolidin-1-yl)-9-cyclopropyl-6-fluoro-8-methoxyiso-thiazolo[5,4-b]quinoline-3,4(2H,9H)-dione]: the MIC with MRSA strain ATCC 700699, with S. aureus ATCC 29213 and in the experiment on E. coli ATCC 25922 was not above 1 µg/mL each time.
On to `CC(C)(N)C1CCN(c2c(F)cc3c(=O)c4c(=O)[nH]sc4n(C4CC4)c3c2F)C1` (stereo not drawn) [Compound 75, 7-(3-(2-amino-propan-2-yl)pyrrolidin-1-yl)-9-cyclo-propyl-6,8-difluoroiso-thiazolo[5,4-b]quinoline-3,4(2H,9H)-dione], for which the minimum inhibitory concentration (MIC) in the experiment on MRSA strain ATCC 700699, with S. aureus ATCC 29213 and with E. coli ATCC 25922 was not above 1 µg/mL in each case.
`CCNC(C)(C)[C@@H]1CCN(c2c(F)cc3c(=O)c4c(=O)[nH]sc4n(C4CC4)c3c2OC)C1` [Compound 89, (R)-9-cyclo-propyl-7-(3-(2-(ethyl-amino)propan-2-yl)pyrrolidin-1-yl)-6-fluoro-8-methoxyiso-thiazolo[5,4-b]quinoline-3,4(2H,9H)-dione]: the MIC in the experiment on MRSA strain ATCC 700699, in the experiment with S. aureus ATCC 29213 and with E. coli ATCC 25922 was not above 1 µg/mL each time.
`CCNC(C)[C@@H]1CCN(c2c(F)cc3c(=O)c4c(=O)[nH]sc4n(C4CC4)c3c2OC)C1` (stereo partly drawn) [Compound 77, (R)-9-cyclo-propyl-7-(3-(1-(ethyl-amino)ethyl)pyrrolidin-1-yl)-6-fluoro-8-methoxyiso-thiazolo[5,4-b]quinoline-3,4(2H,9H)-dione]: the MIC in the experiment on MRSA strain ATCC 700699, in the experiment on S. aureus ATCC 29213 and in the experiment on E. coli ATCC 25922 was not above 1 µg/mL each time.
As to `COc1c(N2CCC(CN)C2)c(F)cc2c(=O)c3c(=O)[nH]sc3n(C3CC3)c12` (stereo not drawn) [Compound 66, 7-(3-(aminomethyl)-pyrrolidin-1-yl)-9-cyclopropyl-6-fluoro-8-methoxyiso-thiazolo[5,4-b]quinoline-3,4(2H,9H)-dione], the MIC with MRSA strain ATCC 700699 and with S. aureus ATCC 29213 was not above 1 µg/mL throughout.

The MIC is the lowest concentration found to suppress growth.

The values are drawn from patent publication US8044204B2, “8-methoxy-9H-isothiazolo[5,4-b]quinoline-3,4-diones and related compounds as anti-infective agents” (Achillion Pharmaceuticals, Inc., priority 2005, dated 2011).
